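Assay format: 96-well plates, 48-hour exposure. GI50: concentration for 50% inhibition of growth. Definition used: TGI = concentration required for complete inhibition of growth.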
Key:
Assay in all cases: NCI anticancer screen, dose series, 48 h
[1] = test system: 786-0 renal
[2] = test system: A498 renal
[3] = test system: A549 NSCLC
[4] = test system: ACHN renal
[5] = test system: BT-549 breast
[6] = test system: CAKI-1 renal
[7] = test system: CCRF-CEM leukemia
[8] = test system: COLO 205 colon
[9] = test system: DU-145 prostate
[10] = test system: EKVX NSCLC
[11] = test system: HCC-2998 colon
[12] = test system: HCT-116 colon
[13] = test system: HCT-15 colon
[14] = test system: HL-60(TB) leukemia
[15] = test system: HOP-62 NSCLC
[16] = test system: HOP-92 NSCLC
[17] = test system: HS 578T breast
[18] = test system: HT29 colon
[19] = test system: IGROV1 ovarian
[20] = test system: K-562 leukemia
[21] = test system: KM12 colon
[22] = test system: LOX IMVI melanoma
[23] = test system: M14 melanoma
[24] = test system: MCF7 breast
[25] = test system: MDA-MB-231 breast
[26] = test system: MDA-MB-435
[27] = test system: MOLT-4 leukemia
[28] = test system: NCI-H226 lung
[29] = test system: NCI-H23 lung

`CCN(CC)c1ccc(C2=NN(C(C)=O)C(c3cc(OC)c(OC)c(OC)c3)C2)cc1` (configuration not stated) was tested, and the GI50 [1] was 491 nM, the TGI [1] was 13300 nM and the GI50 [2] was 344 nM. It also gave a TGI [2] of 4130 nM, a GI50 [3] of 890 nM and a TGI [3] of 22500 nM. The GI50 [4] was 563 nM, the TGI [4] was 23000 nM and the GI50 [5] was 667 nM. It also gave a TGI [5] of 7900 nM, a GI50 [6] of 134 nM and a TGI [6] of 21000 nM. For the same compound, the GI50 [7] was 304 nM, the TGI [7] was 1420 nM and the GI50 [8] was 307 nM. It also gave a TGI [8] of 1160 nM, a GI50 [9] of 399 nM and a TGI [9] of 2280 nM. It also gave a GI50 [10] of 600 nM, a TGI [10] of 11000 nM and a GI50 [11] of 1050 nM. It also gave a TGI [11] of 8040 nM, a GI50 [12] of 349 nM and a TGI [12] of 13000 nM. The GI50 [13] was 441 nM, the TGI [13] was 12100 nM and the GI50 [14] was 209 nM. The TGI [14] was 541 nM, the GI50 [15] was 3960 nM and the TGI [15] was 24200 nM. The GI50 [16] was 1820 nM, the TGI [16] was 20300 nM and the GI50 [17] was 348 nM. For the same compound, the TGI [17] was 26600 nM, the GI50 [18] was 354 nM and the TGI [18] was 1680 nM. The GI50 [19] was 769 nM, the TGI [19] was 33600 nM and the GI50 [20] was 689 nM. It also gave a TGI [20] of over 100000 nM, a GI50 [21] of 349 nM and a TGI [21] of 12100 nM. The GI50 [22] was 568 nM, the TGI [22] was 16000 nM and the GI50 [23] was 418 nM. It also gave a TGI [23] of 6070 nM, a GI50 [24] of 317 nM and a TGI [24] of 11400 nM. For the same compound, the GI50 [25] was 1240 nM, the TGI [25] was 6900 nM and the GI50 [26] was 166 nM. The TGI [26] was 363 nM, the GI50 [27] was 341 nM and the TGI [27] was 3570 nM. It also gave a GI50 [28] of 1740 nM, a TGI [28] of 11800 nM and a GI50 [29] of 870 nM.

Reference: PubChem BioAssay (NCI)
